Structures are written as SMILES.

In test [1] the target is T1, cGMP-specific 3',5'-cyclic phosphodiesterase (Homo sapiens, UniProt O76074). In words: Inhibition of PDE5.
Test [2] has as its target T2, Phosphodiesterase 1 (Homo sapiens, UniProt P54750+Q01064+Q14123). In words: Inhibition of PDE1. Format: protein assay.
For test [3], the target named is T2, Phosphodiesterase 1. In words: Inhibition of PDE1 at 10 uM. The test is classed as protein assay. Set-up: scale not given: the % may be the effect or the level left.
Test [4] deals with T1, cGMP-specific 3',5'-cyclic phosphodiesterase. In words: Inhibition of PDE5 at 10 uM. Set-up: scale not given: the % may be the effect or the level left.

In the case of `COc1ccccc1Nc1nc(-c2sc(N)nc2C)cs1`, the IC50 was 3000 nM in test [1] and 2500 nM on Phosphodiesterase 1 [2].

For the compound `Cn1c(=O)[nH]c(=O)c2c1nc(S)n2CC(O)COc1ccc2ccccc2c1` (stereo not drawn), the IC50 in test [1] came out at 8700 nM; on Phosphodiesterase 1 [2], 300 nM.

Take `COc1cc(/C=C2\SC(=S)N(CC(=O)O)C2=O)ccc1OC(=O)c1cccs1`: the Activity worked out at 59% on Phosphodiesterase 1 [3] and 46% in test [4].

As to `NS(=O)(=O)c1ccc(-c2ccc(/C=C3/C(=O)NN(c4cccc(C(F)(F)F)c4)C3=O)o2)cc1`, the Activity on Phosphodiesterase 1 [3] came out at 45%; in test [4], 66%.

As to `N#CC1=C(N)OC2=C(C(=O)CCC2)C1c1ccc(OCC(=O)Nc2cccc(C(F)(F)F)c2)cc1` (stereo not drawn), the Activity at Phosphodiesterase 1 [3] is 9%; in test [4], 52%.

In the case of `N#Cc1c(N)nc(SCC(=O)Nc2ccc(F)cc2)c(C#N)c1-c1ccccc1`, the IC50 in test [1] is 1700 nM; at Phosphodiesterase 1 [2], 5700 nM.

As to `CCOc1ccc2nc(SCC(=O)NCc3ccc(C(=O)O)cc3)sc2c1`, the Activity on Phosphodiesterase 1 [3] came to 12%; in test [4] it was 39%.

For the compound `Cc1cc(C)nc(NS(=O)(=O)c2ccc(NC(=O)c3cccc(NC(=O)C(F)(F)F)c3)cc2)n1`, the values for the Activity (on Phosphodiesterase 1 [3]; in test [4]) were 15% and 44%, respectively.

As for `COc1ccc(-c2csc(-n3[nH]c(C)c(C(c4ccccc4)C(C#N)C(N)=O)c3=O)n2)cc1` (stereo not drawn), the Activity was determined as 9% on Phosphodiesterase 1 [3] and 42% in test [4].

As to `N#Cc1c(/N=C/c2ccc(-c3ccc(C(=O)O)cc3)o2)sc2c1CCCC2`, the results for the half-inhibitory concentration (IC50) (in test [1]; on Phosphodiesterase 1 [2]) were 2100 nM and 2500 nM, respectively.

Take `N#Cc1c(C(F)(F)F)cc(-c2cccs2)nc1SCc1ccc(C(=O)O)cc1`: the 50% inhibitory concentration (IC50) is 700 nM in test [1] and 1900 nM on Phosphodiesterase 1 [2].

In the case of `COc1ccc(-c2nc(NC(=O)CSCC(=O)O)sc2C)cc1`, the figures for the Activity (on Phosphodiesterase 1 [3]; in test [4]) were 21% and 51%, respectively.

On to `Cc1ccc(-c2cc(C(=O)Nc3ccc(S(N)(=O)=O)cc3)c3ccccc3n2)s1`, for which the results for the half-maximal inhibitory concentration (IC50) (in test [1]; at Phosphodiesterase 1 [2]) were 6300 nM and 2500 nM, respectively.

As to `Cc1cccc(NCc2n[nH]c(SCC(=O)Nc3cc([N+](=O)[O-])ccc3Cl)n2)c1`, the Activity came out at 22% at Phosphodiesterase 1 [3] and 53% in test [4].

In the case of `Cc1cc(C(=O)Nc2cccc(C(=O)O)c2)cc(S(=O)(=O)Nc2cccc(C(=O)O)c2)c1C`, the values for the Activity (at Phosphodiesterase 1 [3]; in test [4]) were 49% and 19%, respectively.

In the case of `COc1cc(C2CC(=O)NC(SCC(=O)Nc3ccc(Br)cc3)=C2C#N)ccc1O` (stereo not drawn), the Activity turned out to be 25% on Phosphodiesterase 1 [3] and 23% in test [4].

As to `Cc1oc(C(=O)N2CCCC2C(=O)O)cc1COc1ccc2oc3ccccc3c2c1` (stereo not drawn), the Activity on Phosphodiesterase 1 [3] came to 42%; in test [4], 48%.

For `O=C(CSc1nnc(-c2ccccc2O)o1)NNC(=O)Cc1ccccc1`, the Activity was 22% at Phosphodiesterase 1 [3] and 1% in test [4].

Regarding `O=C(O)c1ccc(-c2ccc(-c3nc(O)c4c5c(sc4n3)CCCC5)o2)cc1`, the figures for the half-inhibitory concentration (IC50) (in test [1]; at Phosphodiesterase 1 [2]) were 3100 nM and 3700 nM, respectively.

These data come from ChEMBL document CHEMBL1138984, “Identification of phosphodiesterase-1 and 5 dual inhibitors by a ligand-based virtual screening optimized for lead evolution” (Bioorg Med Chem Lett, 2006).
